Where “and” joins values, the source holds several entries; their conditions need not be identical. Equal entries are not always repeated.
Conditions: Liquid, Transpiration method

CCCCCCCOC=O [heptyl methanoate]
Conditions | vapor or sublimation pressure
276.1 K | 0.0215 kPa
277.6 K | 0.02468 kPa
278.6 K | 0.02656 kPa
280.4 K | 0.03187 kPa
283.3 K | 0.04168 kPa
288.3 K | 0.06125 kPa
293.2 K | 0.0889 kPa and 0.08971 kPa
293.3 K | 0.08835 kPa
298.3 K | 0.13 kPa and 0.1304 kPa
303.3 K | 0.183 kPa
308.2 K | 0.257 kPa
311 K | 0.3176 kPa
313.3 K | 0.3549 kPa
316.4 K | 0.4359 kPa

CCCCCCOC=O [hexyl methanoate]
Conditions | vapor or sublimation pressure
275.4 K | 0.07241 kPa
278.5 K | 0.09094 kPa
283.3 K | 0.1319 kPa
288.2 K | 0.1935 kPa
293.3 K | 0.2694 kPa
293.4 K | 0.2753 kPa
298.4 K | 0.4056 kPa and 0.4085 kPa
303.2 K | 0.5577 kPa
303.3 K | 0.5448 kPa
308.3 K | 0.7473 kPa and 0.7588 kPa
313.4 K | 1.016 kPa and 1.013 kPa

CCCCCCOC(=O)CC [hexyl propanoate]
Conditions | vapor or sublimation pressure
278.3 K | 0.01764 kPa
280.7 K | 0.0221 kPa
283.4 K | 0.02827 kPa
285.8 K | 0.03417 kPa
288.2 K | 0.04354 kPa
298.4 K | 0.09932 kPa
303.2 K | 0.1369 kPa and 0.1363 kPa
308.2 K | 0.2024 kPa
313.3 K | 0.2793 kPa
318.5 K | 0.3993 kPa
323.4 K | 0.5422 kPa
326.4 K | 0.6804 kPa
328.4 K | 0.7646 kPa
330.6 K | 0.8602 kPa
333.3 K | 0.9961 kPa

CCCCCCCCOC=O [octyl methanoate]
Conditions | vapor or sublimation pressure
283.3 K | 0.01298 kPa
285.7 K | 0.01585 kPa
288.2 K | 0.01973 kPa
290.8 K | 0.02392 kPa
293.3 K | 0.02964 kPa
298.4 K | 0.04462 kPa
303.2 K | 0.0622 kPa and 0.06388 kPa
308.2 K | 0.09465 kPa
313.5 K | 0.1368 kPa
318.5 K | 0.1894 kPa
323.5 K | 0.2656 kPa
328.4 K | 0.3665 kPa
331.3 K | 0.4318 kPa
333.4 K | 0.4943 kPa
335.3 K | 0.5488 kPa
338.3 K | 0.6635 kPa

CCCCCCCCOC(=O)CC [octyl propanoate]
Conditions | vapor or sublimation pressure [kPa]
293.3 K | 0.00465
295.7 K | 0.00575
298.4 K | 0.00732
300.3 K | 0.00883
303.3 K | 0.01129
308.3 K | 0.0173
313.4 K | 0.02656
318.5 K | 0.0387
323.4 K | 0.0541
328.5 K | 0.08043
333.3 K | 0.1125
338.3 K | 0.155
340.3 K | 0.176
343 K | 0.2098
346.4 K | 0.2681
348.4 K | 0.2952

CCCCCOC(C)=O [pentyl ethanoate]
Conditions | vapor or sublimation pressure
274.2 K | 0.08539 kPa
274.3 K | 0.08709 kPa
275.6 K | 0.0953 kPa and 0.09555 kPa
278.2 K | 0.1145 kPa
280.8 K | 0.1396 kPa
283.2 K | 0.1683 kPa
288.2 K | 0.2413 kPa
293.3 K | 0.343 kPa
298.4 K | 0.4754 kPa
303.3 K | 0.658 kPa
306.7 K | 0.807 kPa
308.2 K | 0.9035 kPa
310.6 K | 1.031 kPa
313.4 K | 1.219 kPa

CCCCCOC=O [pentyl methanoate]
Conditions | vapor or sublimation pressure
274.2 K | 0.2283 kPa
274.3 K | 0.2293 kPa
275.7 K | 0.2518 kPa
278.3 K | 0.3006 kPa and 0.3046 kPa
281 K | 0.37 kPa and 0.3692 kPa
283.2 K | 0.4349 kPa
288.2 K | 0.61 kPa
293.3 K | 0.8452 kPa
298.4 K | 1.161 kPa
303.3 K | 1.571 kPa
305.6 K | 1.779 kPa
308 K | 2.045 kPa
310.7 K | 2.374 kPa
313.3 K | 2.757 kPa

CCCCCOC(=O)CC [pentyl propanoate]
Conditions | vapor or sublimation pressure [kPa]
274.1 K | 0.02995
275.5 K | 0.03342
278.3 K | 0.04139
280.9 K | 0.05087
283.4 K | 0.06315
288.3 K | 0.09403
293.3 K | 0.1374
298.4 K | 0.1984
303.3 K | 0.2789
308.2 K | 0.3925
313.4 K | 0.5328
318.5 K | 0.7195
320.7 K | 0.8423
323.4 K | 0.9568
325.6 K | 1.098
328.4 K | 1.293

Reference: the NIST ThermoML archive (doi:10.1016/j.fluid.2012.08.003)
